Results on one substance are retold here after article PMC6930223 (Scientific Reports, 2019).

Like-named read-outs stand apart in the source and are kept apart here.

In one series the test system is CYP1A2. Set-up: method as in PMID 24174816, PMID 23274770. As to conditions: cited from earlier work.
In a further series the test system is hERG1a mRNA. Nature of the series: RT-qPCR mRNA expression in HEK293-hERG1a/1b cells. The class given is cell-based, human. As to conditions: all concentrations, 24 h at 37 °C. As for the experimental part: (§1) Briefly, total cellular RNA was isolated from treated cells using RNeasy® Plus Mini kit (Qiagen, Germany) following manufacturer’s instruction. The optimized RT-qPCR assay was performed using CFX96™ real-time PCR system (Bio-Rad Laboratories Inc., USA) with the following cycle parameters: 10 min at 50 °C for reverse transcription, 1 min at 95 °C for activation of Taq polymerase, followed by 40 cycles of 10 s at 95 °C for denaturation and 30 s at 53.9 °C for annealing and data acquisition. Specifically, the assay was performed using 100 ng of total RNA and iTaq™ Universal SYBR® Green One-Step Kit (Bio-Rad Laboratories Inc., USA) in 10 µl of reaction volume. A melt curve analysis was computed at the end of the qPCR cycles to determine the specificity of the primers. The results were analyzed using CFX Manager software version 3.1 (Bio-Rad Laboratories Inc., USA). The mRNA expressions of hERG1a/1b were presented as fold changes normalized to endogenous reference genes, ACTB and GAPDH, and relative to the control gene[69]–[71]. Each experiment was conducted in triplicate and data are presented as mean fold changes of three independent experiments.
For orientation: Quantitative PCR measures a nucleic acid by following its amplification.

The next series deals with hERG1b mRNA. Nature of the series: RT-qPCR mRNA expression in HEK293-hERG1a/1b cells. It is filed as cell-based, human. As to conditions: all concentrations, 24 h at 37 °C. As for the experimental part:
as §1

Series [1] relates to hERG1a. Set-up: method as in PMID 27260674. As to conditions: read-out: IC50 in hERG1a-transfected HEK293 cells; cited from earlier work.
Another series concerns hERG1b. Nature of the series: Immunofluorescence surface expression (CTCF/area) in HEK293-hERG1a/1b cells. It is filed as cell-based, human. As to conditions: 24 h. The protocol: (§2) Briefly, cells were first seeded onto 24 mm × 24 mm pre-coated glass cover slips (Leica Microsystems, Germany) in a 6 well plate containing 10% (v/v) FBS-complete DMEM medium. The sterile glass cover slips (Leica Microsystems, Germany) were coated with HistoGrip (Invitrogen, USA) before use. Cells were first cultured in fresh medium containing 0.5% (v/v) FBS for 4 h before replenishing with medium containing arsenic trioxide (positive control) or mitragynine for 24 h. Medium containing 0.1% (v/v) DMSO was used as control. After incubation, the monolayer cells were fixed with 4% (w/v) paraformaldehyde and incubated for 15 min at room temperature, followed by rinsing with PBST solution and incubating with 0.1% (v/v) Triton X-100 solution for 2 min. Subsequently blocking was performed with 3% (w/v) BSA for 1 h and followed by incubation with primary antibodies against hERG1a (1:1000) and hERG1b (1:125) at 4 °C overnight. Immunolabelling was carried out using anti-rabbit IgG F(ab’)2 Alexa Fluor® 488 molecular probes (Cell Signaling, USA) diluted at 1:250 in 3% (w/v) BSA at room temperature. Finally, the cover slips were mounted using Fluoroshield™ with DAPI (Sigma-Aldrich, USA) and viewed under 600x magnification using Nikon C2 confocal microscope (Nikon, USA). The excitation/emission wavelengths for Alexa Fluor 488 and DAPI were 488/512 nm and 405/488 nm respectively. The laser imaging settings such as laser power, gain and amplification factor were set to be similar for all samples. […] For each test sample, at least 20 cells were randomly selected from the 15 spots for quantitation. The green fluorescence intensity was quantified using ImageJ software (http://imagej.nih.gov/ij/)[72],[73]. Intensity was represented as the “corrected total cell fluorescence” (CTCF) per area using the equation “CTCF/area = [Integrated density - (Area of selected cell × Mean fluorescence of background readings)]/Area of selected cell”. Relative protein expression of hERG1a and hERG1b was determined by dividing the mean CTCF/area of treated cells to that of the untreated control. […]

Series [2] deals with hERG1a. The series is described as above. The class given is cell-based, human. As to conditions: 10 µM, 24 h, control 0.1% (v/v) DMSO. The protocol: as §2
Series [3] deals with rapidly delayed rectifier potassium current (IKr) in hiPSC-CMs. Also noted: method as in PMID 25535742. As to conditions: cited from earlier work.
The test system of series [4] is hERG1a. Also noted: method as in PMID 27260674. As to conditions: read-out: IC50 in hERG1a-injected Xenopus oocytes; cited from earlier work.

As usually defined, the IC50 is the concentration at which inhibition is half-maximal. As for mitragynine, in the series on CYP1A2, the “effect on CYP1A2 (induction)” value is reported as “inductive effect”. For the same substance, in the series with hERG1a mRNA, the “effect on mRNA expression of hERG1a” value is “did not affect”. The “effect on mRNA expression of hERG1b” value with hERG1b mRNA is “did not affect”. Further, the IC50 was 1.62 µM in the series with hERG1a [1], 0.91 µM in series [3] (read-out: IC50 of IKr suppression in hiPSC-CMs) and 1.03 µM in the series on hERG1a [4]. Besides, the hERG1b fluorescence intensity result with hERG1b (1 µM) and in the series with hERG1b (10 μM) was “unaffected” throughout. In addition, the “hERG1a fluorescence intensity vs control” value in the series with hERG1a [2] was “significant reduction to approximately half of the intensity”. Further, the “action potential duration at 50 and 90% repolarization (APD50 and APD90)” value in series [3] (10 µM, hiPSC-CMs) is given as “significantly prolonged”.
